What was measured:
[1] = biological target: T1, GSK3α (Homo sapiens, UniProt P49840); assay: bio-layer interferometry (Octet K2, Ni-NTA); supported by CETSA in N2a lysate; assay type: binding
T1 construct: gene GSK3A; recombinant, His tag (CLOUD-CLONE RPA360Hu01)

[2] = biological target: T2, GSK3β (Homo sapiens, UniProt P49841); assay: as above; assay type: binding
T2 construct: gene GSK3B; recombinant, His tag (Sino Biological 10044-H07B)

T1 sequence (P49840 2-483): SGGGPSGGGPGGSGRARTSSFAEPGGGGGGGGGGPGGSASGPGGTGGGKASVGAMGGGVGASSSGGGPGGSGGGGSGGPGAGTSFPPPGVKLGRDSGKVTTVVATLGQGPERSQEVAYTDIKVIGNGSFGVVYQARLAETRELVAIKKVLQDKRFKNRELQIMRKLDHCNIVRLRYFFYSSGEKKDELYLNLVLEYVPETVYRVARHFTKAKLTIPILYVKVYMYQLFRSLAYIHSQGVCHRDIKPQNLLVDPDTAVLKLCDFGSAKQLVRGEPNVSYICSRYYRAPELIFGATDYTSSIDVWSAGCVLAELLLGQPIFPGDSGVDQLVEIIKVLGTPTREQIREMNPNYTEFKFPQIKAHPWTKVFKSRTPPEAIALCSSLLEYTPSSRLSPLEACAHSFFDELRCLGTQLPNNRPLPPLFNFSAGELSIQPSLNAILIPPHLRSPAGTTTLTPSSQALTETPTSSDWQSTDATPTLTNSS

`CCn1cc(C(=O)O)c(=O)c2c(N)c(F)c(NC3CCCCC3)cc21` [AS, AS1842856] showed a Kd [1] of 15.8 µM and a Kd [2] of 40.9 µM.
